Assay results: patent US20210340131A1, “PESTICIDALLY ACTIVE ISOXAZOLINE D[…] AMIDE GROUP AND AN AZETIDINE SULFONE GROUP” (SYNGENTA CROP PROTECTION AG, priority 2018, published 2021)

How the values were obtained:
Assay type in all cases: in vivo
[1] = system: Thrips tabaci; assay: Thrips tabaci (onion thrips) feeding/contact activity; conditions: foliar, 144 h, spray on sunflower leaf discs, mixed ages, 6 days after infestation
Description: Thrips tabaci (Onion Thrips) Feeding/Contact Activity
Sunflower leaf discs were placed on agar in 24-well microtiter plates and sprayed with aqueous test solutions prepared from 10′000 ppm DMSO stock solutions. After drying the leaf discs were infested with a thrips population of mixed ages. The samples were assessed for mortality 6 days after infestation.

[2] = system: Tetranychus urticae; assay: Tetranychus urticae (two-spotted spider mite) feeding/contact activity; conditions: foliar, 192 h, spray on bean leaf discs, mixed population (mobile stages), 8 days after infestation
Description: Tetranychus urticae (Two-Spotted Spider Mite): Feeding/Contact Activity
Bean leaf discs on agar in 24-well microtiter plates were sprayed with aqueous test solutions prepared from 10′000 ppm DMSO stock solutions. After drying the leaf discs were infested with a mite population of mixed ages. The samples were assessed for mortality on mixed population (mobile stages) 8 days after infestation.

[3] = system: Diabrotica balteata; assay: Diabrotica balteata (corn root worm), sprayed maize sprouts, L2 larvae; conditions: 96 h, spray on maize sprouts, 4 days after infestation, read-out: effect in at least one of the two categories (mortality or growth inhibition)
Description: Diabrotica balteata (Corn Root Worm)
Maize sprouts placed onto an agar layer in 24-well microtiter plates were treated with aqueous test solutions prepared from 10′000 ppm DMSO stock solutions by spraying. After drying, the plates were infested with L2 larvae (6 to 10 per well). The samples were assessed for mortality and growth inhibition in comparison to untreated samples 4 days after infestation. The following compounds gave an effect of at least 80% in at least one of the two categories (mortality or growth inhibition) at an application rate of 200 ppm: A1

[4] = system: Euschistus heros; assay: Euschistus heros (neotropical brown stink bug), sprayed soybean leaves, N2 nymphs; conditions: 120 h, spray on soybean leaves, 5 days after infestation, read-out: effect in at least one of the two categories (mortality or growth inhibition)
Description: Euschistus heros (Neotropical Brown Stink Bug)
Soybean leaves on agar in 24-well microtiter plates were sprayed with aqueous test solutions prepared from 10′000 ppm DMSO stock solutions. After drying the leaves were infested with N2 nymphs. The samples were assessed for mortality and growth inhibition in comparison to untreated samples 5 days after infestation.
The following compounds gave an effect of at least 80% in at least one of the two categories (mortality or growth inhibition) at an application rate of 200 ppm: A1, A2

[5] = system: Spodoptera littoralis; assay: Spodoptera littoralis (Egyptian cotton leaf worm), sprayed cotton leaf discs, L1 larvae; conditions: foliar, 72 h, spray on cotton leaf discs, 3 days after infestation, read-out: control (mortality, anti-feeding effect or growth inhibition)
Description: Spodoptera littoralis (Egyptian Cotton Leaf Worm)
Cotton leaf discs were placed onto agar in 24-well microtiter plates and sprayed with aqueous test solutions prepared from 10′000 ppm DMSO stock solutions. After drying the leaf discs were infested with five L1 larvae. The samples were assessed for mortality, anti-feeding effect, and growth inhibition in comparison to untreated samples 3 days after infestation. Control of Spodoptera littoralis by a test sample is given when at least one of the categories mortality, anti-feedant effect, and growth inhibition is higher than the untreated sample.

[6] = system: Plutella xylostella; assay: Plutella xylostella (diamond back moth), artificial diet, L2 larvae; conditions: 120 h, 5 days after infestation, read-out: effect in at least one of the two categories (mortality or growth inhibition)
Description: (§1) Plutella xylostella (Diamond Back Moth)
24-well microtiter plates with artificial diet were treated with aqueous test solutions prepared from 10′000 ppm DMSO stock solutions by pipetting. After drying, the plates were infested with L2 larvae (10 to 15 per well). The samples were assessed for mortality and growth inhibition in comparison to untreated samples 5 days after infestation.
The following compounds gave an effect of at least 80% in at least one of the two categories (mortality or growth inhibition) at an application rate of 200 ppm: A1

[7] = system: Plutella xylostella; assay: Plutella xylostella (diamond back moth), artificial diet, eggs; conditions: 192 h, 8 days after infestation, read-out: effect in at least one of the two categories (mortality or growth inhibition)
Description: as §1
24-well microtiter plates with artificial diet were treated with aqueous test solutions prepared from 10′000 ppm DMSO stock solutions by pipetting. After drying, Plutella eggs were pipetted through a plastic stencil onto a gel blotting paper and the plate was closed with it. The samples were assessed for mortality and growth inhibition in comparison to untreated samples 8 days after infestation.
The following compounds gave an effect of at least 80% in at least one of the two categories (mortality or growth inhibition) at an application rate of 200 ppm: A2

COC(=O)N(C(=O)c1ccc(C2=NO[C@@](c3cc(Cl)c(F)c(Cl)c3)(C(F)(F)F)C2)cc1C)C1CN(S(=O)(=O)C(F)F)C1 [A1, methyl N-[4-[(5S)-5-(3,5-dichloro-4-fluoro-phenyl)-5-(trifluoromethyl)-4H-isoxazol-3-yl]-2-methyl-benzoyl]-N-[1-(difluoromethylsulfonyl)azetidin-3-yl]carbamate]
≥ 80%: mortality at 200 ppm [1] | mortality at 200 ppm [2] | percent effect (mortality or growth inhibition) at 200 ppm [3] | percent effect (mortality or growth inhibition) at 200 ppm [4] | percent control (mortality, anti-feedant effect or growth inhibition) at 200 ppm [5] | percent effect (mortality or growth inhibition) at 200 ppm [6]

CCOC(=O)N(C(=O)c1ccc(C2=NO[C@@](c3cc(Cl)c(F)c(Cl)c3)(C(F)(F)F)C2)cc1C)C1CN(S(=O)(=O)C(F)F)C1 [A2, ethyl N-[4-[(5S)-5-(3,5-dichloro-4-fluoro-phenyl)-5-(trifluoromethyl)-4H-isoxazol-3-yl]-2-methyl-benzoyl]-N-[1-(difluoromethylsulfonyl)azetidin-3-yl]carbamate]
≥ 80%: percent effect (mortality or growth inhibition) at 200 ppm [7] | percent effect (mortality or growth inhibition) at 200 ppm [4] | percent control (mortality, anti-feedant effect or growth inhibition) at 200 ppm [5]
